Laboratory results reported in ChEMBL document CHEMBL1141465, “The design, synthesis and structure-activity relationships of 1-aryl-4-aminoalkylisoquinolines: a novel series of CRF-1 receptor antagonists” (Bioorg Med Chem Lett, 2008).
≈ marks a conversion by molar mass, not a printed value.

Legend:
[1] = Solubility at pH 5.4; type: physicochemical; settings: buffer
[2] = target: T1, Corticotropin-releasing factor receptor 1 (Homo sapiens, UniProt P34998); assay: Displacement of [125I]sauvagine from CRF1 receptor expressed in human IMR32 cells; type: cell-based, IMR-32
T1 sequence (P34998 whole entry): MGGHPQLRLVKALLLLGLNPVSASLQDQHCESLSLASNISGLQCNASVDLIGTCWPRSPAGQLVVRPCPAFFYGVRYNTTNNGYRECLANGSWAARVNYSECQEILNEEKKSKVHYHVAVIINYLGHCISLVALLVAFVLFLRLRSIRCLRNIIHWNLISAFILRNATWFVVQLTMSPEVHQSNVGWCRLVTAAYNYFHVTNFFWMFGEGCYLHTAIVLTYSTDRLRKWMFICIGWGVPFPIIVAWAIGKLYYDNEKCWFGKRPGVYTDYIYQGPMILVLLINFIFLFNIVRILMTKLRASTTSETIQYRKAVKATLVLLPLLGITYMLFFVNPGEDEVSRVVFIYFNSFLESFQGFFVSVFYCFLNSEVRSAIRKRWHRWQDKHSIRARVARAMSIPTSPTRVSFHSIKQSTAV

[3] = Half life in rat liver microsomes; type: ADME, Microsome
[4] = Partition coefficient, log P of the compound; type: physicochemical; settings: octanol/water
Rattus norvegicus = assay: Volume of distribution in po dosed rat; type: ADME, organism-based; settings: in vivo
[5] = Cmax in po dosed rat; type: ADME, organism-based; parameters: route oral; settings: in vivo
[6] = Clearance in po dosed rat; type: ADME, organism-based; settings: in vivo
[7] = Oral bioavailability of rat at 20 mg/kg; type: ADME, organism-based; settings: in vivo
[8] = Tmax in po dosed rat; type: ADME, organism-based; settings: in vivo
[9] = Half life in po dosed rat; type: ADME, organism-based; settings: in vivo

| Structure (SMILES) | solubility [1] [µg/mL] | Ki [2] [nM] | other results |
| --- | --- | --- | --- |
| CCCN(CCC)c1c(C)nc(-c2c(C)cc(C)cc2OCCN(C)C)c2ccccc12 | 112 (≈ 258 µM) | 265 | – |
| CCCN(CCC)c1c(C)nc(-c2ccc(OC)cc2OC)c2ccccc12 | – | 42 | – |
| CCCN(CCC)c1c(C)nc(-c2ccc(OC(F)F)cc2OC)c2ccccc12 | – | 17 | – |
| CCCN(CCC)c1c(C)nc(-c2ccc(OC)cc2C)c2ccccc12 | – | 28 | – |
| CCCN(CCC)c1c(C)nc(-c2c(C)cc(C)cc2OCCN2CCCC2)c2ccccc12 | 105 (≈ 228 µM) | 173 | – |
| CCCN(CCC)c1c(C)nc(-c2c(C)cc(C)cc2OCCN2CCOCC2)c2ccccc12 | – | 30 | – |
| CCCN(CCC)c1c(C)nc(-c2cccc(Cl)c2)c2ccccc12 | – | > 10000 | – |
| CCCN(CCC)c1c(C)nc(-c2ccc(Cl)cc2)c2ccccc12 | – | 962 | – |
| CCCN(CCC)c1c(C)nc(-c2ccccc2Cl)c2ccccc12 | – | 1680 | – |
| CCCN(CCC)c1c(C)nc(-c2c(C)cc(C)cc2OCCN2CCCCC2)c2ccccc12 | 27 (≈ 57 µM) | 120 | – |
| COc1cc(C)cc(C)c1-c1nc(C)c(N(CC2CC2)CC2CC2)c2ccccc12 | < 0.5 | 7 | – |
| CCCN(CCC)c1c(C)nc(-c2ccc(Cl)cc2Cl)c2ccccc12 | – | 103 | – |
| CCCN(CCN1CCCC1)c1c(C)nc(-c2c(C)cc(C)cc2OC)c2ccccc12 | 120 (≈ 278 µM) | 215 | – |
| CCCN(CCC)c1c(C)nc(-c2c(C)cc(C)cc2OCCN2CCCC(O)C2)c2ccccc12 (stereo unspecified) | 131 (≈ 268 µM) | 32 | – |
| CCCN(CCC)c1c(C)nc(-c2ccc(Cl)cc2C)c2ccccc12 | – | 21 | – |
| CCCN(CCC)c1c(C)nc(-c2ccccc2)c2ccccc12 | – | > 10000 | – |
| CCCN(CCC)c1c(C)nc(-c2c(C)cc(C)cc2OCCN2CCC(O)CC2)c2ccccc12 | 125 (≈ 255 µM) | 41 | – |
| CCCN(CCn1ccnc1)c1c(C)nc(-c2c(C)cc(C)cc2OC)c2ccccc12 | 107 (≈ 250 µM) | 1060 | – |
| CCCN(CCC)c1c(C)nc(-c2c(C)cc(C)cc2OC)c2ccccc12 | < 0.5 | 6 | half-life [3]: 4 min; logP [4]: 4.6 |
| CCCN(CCC)c1cnc(-c2c(C)cc(C)cc2OC)c2ccccc12 | – | 49 | – |
| CCCN(CCC)c1c(C)nc(-c2ccc(OC)cc2CC)c2ccccc12 | – | 36 | – |
| COc1cc(C)cc(C)c1-c1nc(C)c(NCCN2CCCC2)c2ccccc12 | 103 (≈ 264 µM) | > 10000 | – |
| CCCNc1c(C)nc(-c2c(C)cc(C)cc2OC)c2ccccc12 | – | 165 | – |
| CCCN(CCC)c1c(C)nc(-c2c(OC)cc(C(F)(F)F)cc2C(F)(F)F)c2ccccc12 | < 0.5 | 8 | Vd (Rattus norvegicus): 13 L/kg; Cmax [5]: 387 ng/mL; CL/F [6]: 14.5 mL/min/kg; bioavailability [7]: 4.8%; half-life [3]: 36 min; logP [4]: 5.7; Tmax [8]: 42 min; half-life [9]: 324 min |
| CCCN(CCC)c1c(CC)nc(-c2c(C)cc(C)cc2OC)c2ccccc12 | – | 9 | – |
| CCCN(CCC)c1c(C)nc(-c2c(C)cc(C)cc2OCCN2CCN(C)CC2)c2ccccc12 | 135 (≈ 276 µM) | 524 | – |
| CCCN(CC1CC1)c1c(C)nc(-c2c(C)cc(C)cc2OC)c2ccccc12 | < 0.5 | 5 | – |
| CCCN(CCC)c1c(C)nc(-c2c(C)cc(OC)cc2C)c2ccccc12 | – | 26 | – |
